system: hepatitis C replicon; assay: hepatitis C replicon EC50; assay type: cell-based; conditions: Hepatitis C virus; Table 2; hepatitis C replicon; read-out: EC50
From the text: NS3-NS4 inhibition activity can be determined using known assay methods.

| SMILES | EC50 |
| --- | --- |
| O=C1N[C@]2(C(=O)O)C[C@H]2/C=C\CCCCC[C@H](Nc2ccccc2)C(=O)N2C[C@H](Oc3nc4ccccc4s3)C[C@@H]12 [Compound 101] | > 500 nM |
| COc1ccc2c(O[C@@H]3C[C@H]4C(=O)N[C@]5(C(=O)NS(=O)(=O)C6(C)CC6)C[C@H]5/C=C\CCCCC[C@H](Nc5cccc(C(N)=O)c5)C(=O)N4C3)cc(-c3nc(C(C)C)cs3)nc2c1C [Compound 483] | < 10 nM |
| COc1ccc2c(O[C@@H]3C[C@H]4C(=O)N[C@]5(C(=O)NS(=O)(=O)C6(C)CC6)C[C@H]5/C=C\CCCCC[C@H](Nc5cccc(NS(C)(=O)=O)c5)C(=O)N4C3)cc(-c3nc(C(C)C)cs3)nc2c1C [Compound 484] | 10 to 75 nM |
| COc1ccc2c(O[C@@H]3C[C@H]4C(=O)N[C@]5(C(=O)NS(=O)(=O)C6(C)CC6)C[C@H]5/C=C\CCCCC[C@H](Nc5ccc(NC(C)=O)cc5)C(=O)N4C3)cc(-c3nc(C(C)C)cs3)nc2c1C [Compound 485] | 10 to 75 nM |

target: NS3/NS4 complexes (Hepatitis C virus genotype 1a, UniProt P27958); assay: NS3/NS4 inhibition activity (IC50); assay type: biochemical; conditions: IC50, Table 3
From the text: NS3-NS4 inhibition activity can be determined using known assay methods. For example, NS3/NS4 complexes may be formed and inhibitory concentrations of test compounds determined as described in U.S. Patent Application Publication Number 2007/0054842 paragraph numbers 1497-1509, which is incorporated herein by reference in its entirety. Similarly, hepatitis C replicon EC50 may be determined using known assay methods such as described in U.S. Patent Application Publication Number 2007/0054842 paragraph numbers 1510-1515. Assays may be conducted at ambient temperature (23° C.) in assay buffer containing 50 mM Tris-HCl, pH 7.5, 15% glycerol, 0.6 mM Lauryldimethylamine Oxide (LDAO), 25 μM NS4A peptide, and 10 mM Dithiothreitol (DTT).

Sequence of NS3/NS4 complexes (P27958 1027-1657): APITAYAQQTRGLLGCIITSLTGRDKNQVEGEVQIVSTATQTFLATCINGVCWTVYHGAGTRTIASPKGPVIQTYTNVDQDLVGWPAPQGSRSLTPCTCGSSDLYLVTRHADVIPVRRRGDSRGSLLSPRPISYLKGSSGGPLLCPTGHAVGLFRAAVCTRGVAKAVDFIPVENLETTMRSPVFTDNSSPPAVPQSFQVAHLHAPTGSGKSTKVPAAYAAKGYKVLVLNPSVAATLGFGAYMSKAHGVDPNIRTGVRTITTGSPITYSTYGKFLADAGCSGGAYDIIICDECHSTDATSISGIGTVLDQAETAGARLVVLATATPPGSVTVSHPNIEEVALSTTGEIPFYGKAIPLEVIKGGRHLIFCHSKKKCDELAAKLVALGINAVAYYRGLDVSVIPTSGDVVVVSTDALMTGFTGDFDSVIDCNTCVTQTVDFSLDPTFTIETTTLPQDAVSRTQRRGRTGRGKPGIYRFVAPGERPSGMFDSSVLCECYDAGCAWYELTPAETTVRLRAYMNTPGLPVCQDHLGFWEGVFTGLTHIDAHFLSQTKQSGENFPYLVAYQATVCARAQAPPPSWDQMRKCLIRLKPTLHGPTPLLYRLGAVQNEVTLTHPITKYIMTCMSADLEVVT
Sequence of NS3/NS4 complexes (P27958 1658-1711): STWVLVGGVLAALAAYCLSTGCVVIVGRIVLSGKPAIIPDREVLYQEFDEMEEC

| SMILES | IC50 |
| --- | --- |
| CC(C)(C)OC(=O)N[C@H]1CCCCC/C=C\[C@@H]2C[C@@]2(C(=O)N2CCC[C@H]2C(=O)NCc2ccccc2)NC(=O)[C@@H]2C[C@@H](OC(=O)N3Cc4cccc(F)c4C3)CN2C1=O [Compound 1054] | > 100 nM |
| CC(C)(C)OC(=O)N[C@H]1CCCCC/C=C\[C@@H]2C[C@@]2(C(=O)NCC(=O)NCc2ccccc2)NC(=O)[C@@H]2C[C@@H](O)CN2C1=O [Compound 1055] | > 100 nM |
| CC(C)(C)OC(=O)N[C@H]1CCCCC/C=C\[C@@H]2C[C@@]2(C(=O)N2CCC[C@H]2C(=O)NCc2ccccc2)NC(=O)[C@@H]2C[C@@H](O)CN2C1=O [Compound 1056] | > 100 nM |
| CC(=O)O[C@@H]1C[C@H]2C(=O)N[C@]3(C(=O)NCC(=O)NCc4ccccc4)C[C@H]3/C=C\CCCCC[C@H](NC(=O)OC(C)(C)C)C(=O)N2C1 [Compound 1060] | > 100 nM |
| CO[C@@H]1C[C@H]2C(=O)N[C@]3(C(=O)NCC(=O)NCc4ccccc4)C[C@H]3/C=C\CCCCC[C@H](NC(=O)OC(C)(C)C)C(=O)N2C1 [Compound 1063] | > 100 nM |
| CO[C@@H]1C[C@H]2C(=O)N[C@]3(C(=O)N4CCC[C@H]4C(=O)NCc4ccccc4)C[C@H]3/C=C\CCCCC[C@H](NC(=O)OC(C)(C)C)C(=O)N2C1 [Compound 1064] | > 100 nM |
| CN(C)C(=O)O[C@@H]1C[C@H]2C(=O)N[C@]3(C(=O)NCC(=O)NCc4ccccc4)C[C@H]3/C=C\CCCCC[C@H](NC(=O)OC(C)(C)C)C(=O)N2C1 [Compound 1066] | > 100 nM |
| CN(C)C(=O)O[C@@H]1C[C@H]2C(=O)N[C@]3(C(=O)N4CCC[C@H]4C(=O)NCc4ccccc4)C[C@H]3/C=C\CCCCC[C@H](NC(=O)OC(C)(C)C)C(=O)N2C1 [Compound 1068] | > 100 nM |
| CC(C)(C)OC(=O)N[C@H]1CCCCC/C=C\[C@@H]2C[C@@]2(C(=O)N2CCC[C@@H]2C(=O)NCc2ccccc2)NC(=O)[C@@H]2C[C@@H](O)CN2C1=O [Compound 1087] | > 100 nM |
| CC(=O)O[C@@H]1C[C@H]2C(=O)N[C@]3(C(=O)N4CCC[C@@H]4C(=O)NCc4ccccc4)C[C@H]3/C=C\CCCCC[C@H](NC(=O)OC(C)(C)C)C(=O)N2C1 [Compound 1088] | > 100 nM |
| CO[C@@H]1C[C@H]2C(=O)N[C@]3(C(=O)N4CCC[C@@H]4C(=O)NCc4ccccc4)C[C@H]3/C=C\CCCCC[C@H](NC(=O)OC(C)(C)C)C(=O)N2C1 [Compound 1089] | > 100 nM |
| CN(C)C(=O)O[C@@H]1C[C@H]2C(=O)N[C@]3(C(=O)N4CCC[C@@H]4C(=O)NCc4ccccc4)C[C@H]3/C=C\CCCCC[C@H](NC(=O)OC(C)(C)C)C(=O)N2C1 [Compound 1090] | > 100 nM |

same assay, conditions: Table 2, read-out: IC50

| SMILES | IC50 |
| --- | --- |
| O=C1N[C@]2(C(=O)O)C[C@H]2/C=C\CCCCC[C@H](Nc2ccccc2)C(=O)N2C[C@H](Oc3nc4ccccc4s3)C[C@@H]12 [Compound 101] | 75 to 500 nM |
| O=C1N[C@]2(C(=O)O)C[C@H]2/C=C\CCCCC[C@H](Nc2cccc(F)c2)C(=O)N2C[C@H](Oc3nc4ccccc4s3)C[C@@H]12 [Compound 123] | 75 to 500 nM |
| COc1ccc2c(O[C@@H]3C[C@H]4C(=O)N[C@]5(C(=O)NS(=O)(=O)C6(C)CC6)C[C@H]5/C=C\CCCCC[C@H](Nc5cc(F)cc(C(F)(F)F)c5)C(=O)N4C3)cc(-c3ccccc3)nc2c1 [Compound 357] | 10 to 75 nM |

The next lines start with the values.

| IC50 | SMILES |
| --- | --- |
| 75 to 500 nM | COc1cccc(N[C@H]2CCCCC/C=C\[C@@H]3C[C@@]3(C(=O)O)NC(=O)[C@@H]3C[C@@H](Oc4nc5ccccc5s4)CN3C2=O)c1 [Compound 132] |
| 10 to 75 nM | O=C1N[C@]2(C(=O)O)C[C@H]2/C=C\CCCCC[C@H](Nc2cc(F)cc(C(F)(F)F)c2)C(=O)N2C[C@H](Oc3nc4ccccc4s3)C[C@@H]12 [Compound 321] |
| 10 to 75 nM | O=C1N[C@]2(C(=O)O)C[C@H]2/C=C\CCCCC[C@H](Nc2cc(F)cc(C(F)(F)F)c2)C(=O)N2C[C@H](Oc3nc4ccc(Cl)cc4s3)C[C@@H]12 [Compound 322] |
| < 10 nM | Cc1ccc2nc(O[C@@H]3C[C@H]4C(=O)N[C@]5(C(=O)O)C[C@H]5/C=C\CCCCC[C@H](Nc5cc(F)cc(C(F)(F)F)c5)C(=O)N4C3)sc2c1 [Compound 323] |
| 10 to 75 nM | O=C1N[C@]2(C(=O)O)C[C@H]2/C=C\CCCCC[C@H](Nc2cc(F)cc(F)c2)C(=O)N2C[C@H](Oc3nc4ccccc4s3)C[C@@H]12 [Compound 324] |
| 10 to 75 nM | O=C1N[C@]2(C(=O)O)C[C@H]2/C=C\CCCCC[C@H](Nc2ccc3ccccc3c2)C(=O)N2C[C@H](Oc3nc4ccccc4s3)C[C@@H]12 [Compound 327] |
| 75 to 500 nM | O=C1N[C@]2(C(=O)O)C[C@H]2/C=C\CCCCC[C@H](Nc2ccc(C(F)(F)F)cc2)C(=O)N2C[C@H](Oc3nc4ccccc4s3)C[C@@H]12 [Compound 329] |
| 75 to 500 nM | O=C1N[C@]2(C(=O)O)C[C@H]2/C=C\CCCCC[C@H](Nc2ccc(F)c(F)c2)C(=O)N2C[C@H](Oc3nc4ccccc4s3)C[C@@H]12 [Compound 343] |
| 75 to 500 nM | O=C1N[C@]2(C(=O)O)C[C@H]2/C=C\CCCCC[C@H](Nc2cc(Cl)cc(Cl)c2)C(=O)N2C[C@H](Oc3nc4ccccc4s3)C[C@@H]12 [Compound 344] |
| < 10 nM | COc1ccc2c(O[C@@H]3C[C@H]4C(=O)N[C@]5(C(=O)O)C[C@H]5/C=C\CCCCC[C@H](Nc5cccc(F)c5)C(=O)N4C3)cc(-c3nc(C(C)C)cs3)nc2c1C [Compound 448] |

same assay, conditions: Table 3, read-out: IC50

| IC50 | SMILES |
| --- | --- |
| 10 to 100 nM | CC(C)(C)OC(=O)N[C@H]1CCCCC/C=C\[C@@H]2C[C@@]2(C(=O)NOc2ccccc2)NC(=O)[C@@H]2C[C@@H](Oc3nc4ccccc4s3)CN2C1=O [Compound 1020] |
| 10 to 100 nM | CC(C)(C)OC(=O)N[C@H]1CCCCC/C=C\[C@@H]2C[C@@]2(C(=O)NOc2ccccc2)NC(=O)[C@@H]2C[C@@H](Oc3nc4ccc(F)cc4s3)CN2C1=O [Compound 1021] |
| > 100 nM | CC(C)(C)OC(=O)N[C@H]1CCCCC/C=C\[C@@H]2C[C@@]2(C(=O)NOc2ccccc2)NC(=O)[C@@H]2C[C@@H](Oc3nc4ccc(Br)cc4s3)CN2C1=O [Compound 1022] |
| > 100 nM | CC(C)(C)OC(=O)N[C@H]1CCCCC/C=C\[C@@H]2C[C@@]2(C(=O)NOc2ccccc2)NC(=O)[C@@H]2C[C@@H](Oc3nc4ccc(Cl)cc4s3)CN2C1=O [Compound 1023] |
| > 100 nM | Cc1ccc2nc(O[C@@H]3C[C@H]4C(=O)N[C@]5(C(=O)NOc6ccccc6)C[C@H]5/C=C\CCCCC[C@H](NC(=O)OC(C)(C)C)C(=O)N4C3)sc2c1 [Compound 1024] |
| > 100 nM | COc1ccc2nc(O[C@@H]3C[C@H]4C(=O)N[C@]5(C(=O)NOc6ccccc6)C[C@H]5/C=C\CCCCC[C@H](NC(=O)OC(C)(C)C)C(=O)N4C3)sc2c1 [Compound 1025] |
| > 100 nM | CC(C)(C)OC(=O)N[C@H]1CCCCC/C=C\[C@@H]2C[C@@]2(C(=O)O)NC(=O)[C@@H]2C[C@@H](Oc3nc4ccc(Cl)cc4o3)CN2C1=O [Compound 1041] |
| 10 to 100 nM | CC(C)(C)OC(=O)N[C@H]1CCCCC/C=C\[C@@H]2C[C@@]2(C(=O)O)NC(=O)[C@@H]2C[C@@H](Oc3nc4cccc(F)c4o3)CN2C1=O [Compound 1042] |
| 10 to 100 nM | CC(C)(C)OC(=O)N[C@H]1CCCCC/C=C\[C@@H]2C[C@@]2(C(=O)O)NC(=O)[C@@H]2C[C@@H](Oc3nc4cc(F)ccc4o3)CN2C1=O [Compound 1043] |
| > 100 nM | Cc1ccc2oc(O[C@@H]3C[C@H]4C(=O)N[C@]5(C(=O)O)C[C@H]5/C=C\CCCCC[C@H](NC(=O)OC(C)(C)C)C(=O)N4C3)nc2c1 [Compound 1044] |
| > 100 nM | CC(=O)O[C@@H]1C[C@H]2C(=O)N[C@]3(C(=O)NCCC(=O)NCc4ccccc4)C[C@H]3/C=C\CCCCC[C@H](NC(=O)OC(C)(C)C)C(=O)N2C1 [Compound 1059] |
| > 100 nM | CN(C)C(=O)O[C@@H]1C[C@H]2C(=O)N[C@]3(C(=O)NCCC(=O)NCc4ccccc4)C[C@H]3/C=C\CCCCC[C@H](NC(=O)OC(C)(C)C)C(=O)N2C1 [Compound 1067] |
| > 100 nM | CC(C)(C)OC(=O)N[C@H]1CCCCC/C=C\[C@@H]2C[C@@]2(C(=O)NS(=O)(=O)CC(=O)Nc2ccccc2)NC(=O)[C@@H]2C[C@@H](O)CN2C1=O [Compound 1092] |
| > 100 nM | CN(C)C(=O)O[C@@H]1C[C@H]2C(=O)N[C@]3(C(=O)NS(=O)(=O)CC(=O)Nc4ccccc4)C[C@H]3/C=C\CCCCC[C@H](NC(=O)OC(C)(C)C)C(=O)N2C1 [Compound 1095] |
| < 10 nM | CNC(=O)COc1ccccc1S(=O)(=O)NC(=O)[C@@]12C[C@H]1/C=C\CCCCC[C@H](NC(=O)OC(C)(C)C)C(=O)N1C[C@H](OC(=O)N(C)C)C[C@H]1C(=O)N2 [Compound 1097] |
| > 100 nM | CC(=O)O[C@@H]1C[C@H]2C(=O)N[C@]3(C(=O)NS(=O)(=O)CC(=O)Nc4ccccc4)C[C@H]3/C=C\CCCCC[C@H](NC(=O)OC(C)(C)C)C(=O)N2C1 [Compound 1098] |
| < 10 nM | CC(C)n1c(O[C@@H]2C[C@H]3C(=O)N[C@]4(C(=O)NS(=O)(=O)N(C)C)C[C@H]4/C=C\CCCCC[C@H](NC(=O)OC(C)(C)C)C(=O)N3C2)nc2ccncc21 [Compound 1145] |

Source: patent US8048862B2, “Macrocyclic inhibitors of hepatitis C virus replication” (priority 2008, dated 2011)
